{"source": "patent US8426342B2", "about": "“Method for weed control in lawn” (priority 2008, dated 2013)", "key": {"Taraxacum officinalis": {"system": "Taraxacum officinalis", "assay": "Greenhouse herbicidal effect in weed control ex. 6.2, 1- to 2-leaves stage", "format": "in vivo", "description": "(§1) That means, when applying the combinations according to the invention, herbicidal effects are observed on a harmful plant species which exceed the formal total of the effects of the herbicides present when these are applied by themselves. Alternatively, it is observed in some cases that a lower application rate is required for the herbicide combination in order to achieve the same effect on a harmful plant species in comparison with the individual products.\n(§2) When the data observed already exceed the formal total (=E^A) of the data in the experiments with individual applications, they likewise exceed the expected value according to Colby, which is calculated using the formula below and is likewise regarded as an indication of synergism (cf. S. R. Colby; in Weeds 15 (1967) pp. 20 to 22): E=A+B−(A·B/100)\n(§3) In this formula: • A=action of active compound (A) in % at an application rate of a g of AS/ha; • B=action of active compound (B) in % at an application rate of b g of AS/ha; • E=expected value of the action of the combination (A)+(B) in % at the combined application rate a+b g of AS/ha.\n(§4) The data observed in the experiments show, at suitably low dosages, an action of the combinations which exceeds the expected values according to Colby (=E^C)."}, "Cynodon dactylon": {"system": "Cynodon dactylon", "assay": "Greenhouse selectivity testing ex. 6.1, turf grass plants in 1-leaf stage, % injury", "experimental": "Turf grass plants were grown in sandy loam soil in the greenhouse under good growing conditions up to the 1-leaf stage. In parallel tests, a formulation (water-dispersable powder) containing a mixture of the compounds no. […] The turf grass plants were further kept under good growing conditions. 7 days after application the selectivity was visually evaluated as percent (%) injury compared to untreated control plants."}, "weed plants": {"system": "weed plants", "assay": "Greenhouse herbicidal effect in weed control ex. 6.2 (Tables 34 to 37)", "format": "in vivo", "conditions": "post-emergence; for Herbicidal effect (%) 7 DAT on Trifolium pratense: 3-leaves stage", "experimental": "as §2"}, "[1]": {"system": "monocotyledonous and dicotyledonous weed plants", "assay": "Field trial ex. 7.1, weed control in pre-emergence application, 12 DAT (Tables 38, 39)", "format": "in vivo", "experimental": "as §2\nSeeds or rhizome pieces of monocotyledonous and dicotyledonous weed plants were placed in the field in sandy loam soil and covered with soil. […] 12 days after application (12 DAT), the herbicidal effect on the developed weed plants was visually evaluated as percent (%) herbicidal effect compared to untreated control plants."}, "Capsella bursa pastoris": {"system": "Capsella bursa pastoris", "assay": "Greenhouse herbicidal effect in weed control ex. 6.2, 2- to 3-leaves stage", "format": "in vivo", "description": "as §1, §2, §3, §4"}, "[2]": {"system": "monocotyledonous and dicotyledonous weed plants", "assay": "Field trial ex. 7.2, weed control in post-emergence application (Table 40)", "format": "in vivo", "conditions": "2-leaves stage, 12 DAT", "experimental": "as §2, §3\n(§5) Seeds or rhizome pieces of monocotyledonous and dicotyledonous weed plants and specific warm season turf grasses were placed in the field in sandy loam soil, covered with soil and grown until the plants had reached the leaves stage indicated in the tables. […] The herbicidal effect was visually evaluated as percent (%) herbicidal effect compared to untreated control plants. The results are summarized in Table 40 below and show a synergistic increase in herbicidal effect of the mixtures of active ingredients and a good safety of the turf grass."}, "[3]": {"system": "specific warm season turf grasses", "assay": "Field trial ex. 7.2, turf grass safety in post-emergence application (Table 40)", "format": "in vivo", "description": "as §5"}, "[4]": {"conditions": "Cynodon dactylon, in vivo, 7 days after application"}}, "note": "Marks after values point to notes of the source that are not given here.", "data": [{"smiles": "COc1cc(OC)n2nc(S(=O)(=O)Nc3c(Cl)ccc(C)c3Cl)nc2n1", "note": "[Metosulam]", "values": [{"measurement": "Herbicidal effect (%) 7 DAT on Taraxacum officinalis", "setting": "Taraxacum officinalis; 10 g a.i./ha", "value": 10, "unit": "%"}, {"measurement": "Selectivity evaluation (% injury) 7 DAT on Cynodon dactylon", "setting": "Cynodon dactylon; [4]", "value": 0, "unit": "%"}]}, {"smiles": "Nc1c(Cl)c(Cl)nc(C(=O)O)c1Cl", "note": "[Picloram, reference compound]", "values": [{"measurement": "Herbicidal effect (%) 7 DAT on Echinocloa crus-galli", "setting": "weed plants; 3- to 4-leaves stage, 300 g a.i./ha", "value": 30, "unit": "%"}, {"measurement": "Selectivity evaluation (% injury) 7 DAT on Cynodon dactylon", "setting": "Cynodon dactylon; 300 g a.i./ha, 7 DAT, greenhouse, 1-leaf stage", "value": 0, "unit": "%"}]}, {"smiles": "CCS(=O)(=O)c1cccnc1S(=O)(=O)NC(=O)Nc1nc(OC)cc(OC)n1", "note": "[Rimsulfuron, reference compound]", "values": [{"measurement": "Herbicidal effect (%) 7 DAT on Trifolium pratense", "setting": "weed plants; 5 g a.i./ha", "value": 40, "unit": "%"}, {"measurement": "Selectivity evaluation (% injury) 7 DAT on Cynodon dactylon", "setting": "Cynodon dactylon; [4]", "value": 10, "unit": "%"}]}, {"smiles": "Cc1cc(Cl)ccc1OCC(=O)O", "note": "[MCPA, reference compound]", "values": [{"measurement": "Herbicidal effect (%) 7 DAT on Trifolium pratense", "setting": "weed plants; 500 g a.i./ha", "value": 30, "unit": "%"}, {"measurement": "Selectivity evaluation (% injury) 7 DAT on Cynodon dactylon", "setting": "Cynodon dactylon; 500 g a.i./ha, 7 DAT, greenhouse, 1-leaf stage", "value": 0, "unit": "%"}]}, {"smiles": "CCOc1ccccc1OS(=O)(=O)NC(=O)Nc1nc(OC)cc(OC)n1", "note": "[Ethoxysulfuron]", "values": [{"measurement": "Herbicidal effect (%) 12 DAT on Brachiaria decumbens", "setting": "[1]; Table 38, field, 30 g a.i./ha", "value": 0, "unit": "%"}, {"measurement": "Herbicidal effect (%) 7 DAT on Capsella bursa pastoris", "setting": "Capsella bursa pastoris; 20 g a.i./ha", "value": 50, "unit": "%"}, {"measurement": "Selectivity evaluation (% injury) 7 DAT on Cynodon dactylon", "setting": "Cynodon dactylon; [4]", "value": 0, "unit": "%"}]}, {"smiles": "O=C(O)CNCP(=O)(O)O", "note": "[Glyphosate]", "values": [{"measurement": "Herbicidal effect (%) 7 DAT on Taraxacum officinalis", "setting": "Taraxacum officinalis; 200 g a.i./ha", "value": 40, "unit": "%"}]}, {"smiles": "Cc1cc(Cl)ccc1O[C@@H](C)C(=O)O", "note": "[Mecoprop-P]", "values": [{"measurement": "Herbicidal effect (%) 7 DAT on Taraxacum officinalis", "setting": "Taraxacum officinalis; 500 g a.i./ha", "value": 20, "unit": "%"}]}, {"smiles": "CCOC(=O)[C@@H](C)Oc1ccc(Oc2nc3ccc(Cl)cc3o2)cc1", "note": "[Fenoxaprop-P-ethyl]", "values": [{"measurement": "Herbicidal effect (%) 12 DAT on Brachiaria decumbens", "setting": "[1]; Table 39, field, 60 g a.i./ha", "value": 0, "unit": "%"}, {"measurement": "Herbicidal effect (%) 7 DAT on Trifolium pratense", "setting": "weed plants; 45 g a.i./ha", "value": 0, "unit": "%"}]}, {"smiles": "O=C(O)CNCP(=O)([O-])O.[K+]", "note": "[Glyphosate-potassium salt (K salt)]", "values": [{"measurement": "Herbicidal effect (%) on Commelina benghalensis", "setting": "[2]; 620 g a.i./ha", "value": 62, "unit": "%"}, {"measurement": "Herbicidal effect (%) on Commelina benghalensis", "setting": "[2]; 840 g a.i./ha", "value": 62, "unit": "%"}, {"measurement": "Herbicidal effect (%) 12 DAT on Brachiaria decumbens", "setting": "[1]; Table 39, field, 620 g a.i./ha", "value": 0, "unit": "%"}, {"measurement": "Herbicidal effect (%) 12 DAT on Brachiaria decumbens", "setting": "[1]; Table 39, field, 840 g a.i./ha", "value": 0, "unit": "%"}, {"measurement": "Herbicidal effect (%) on Paspalum notatum (warm season turf grass)", "setting": "[3]; field, post-emergence, 3-leaves stage, 620 g a.i./ha, 7 DAT, turf grass used is not glyphosate tolerant", "value": "23^5) %"}, {"measurement": "Herbicidal effect (%) on Paspalum notatum (warm season turf grass)", "setting": "[3]; field, post-emergence, 3-leaves stage, 840 g a.i./ha, 7 DAT, turf grass used is not glyphosate tolerant", "value": "40^5) %"}]}, {"smiles": "COC(=O)c1ccc(CNS(C)(=O)=O)cc1S(=O)(=O)NC(=O)Nc1nc(OC)cc(OC)n1", "note": "[Mesosulfuron-methyl, reference compound]", "values": [{"measurement": "Herbicidal effect (%) on Commelina benghalensis", "setting": "[2]; 5 g a.i./ha", "value": 47, "unit": "%"}, {"measurement": "Herbicidal effect (%) 12 DAT on Brachiaria decumbens", "setting": "[1]; Table 38, field, 5 g a.i./ha", "value": 0, "unit": "%"}, {"measurement": "Herbicidal effect (%) on Paspalum notatum (warm season turf grass)", "setting": "[3]; in vivo", "value": 0, "unit": "%"}, {"measurement": "Selectivity evaluation (% injury) 7 DAT on Cynodon dactylon", "setting": "Cynodon dactylon; 5 g a.i./ha, 7 DAT, greenhouse, 1-leaf stage", "value": 0, "unit": "%"}]}, {"smiles": "COC(=O)c1ccccc1S(=O)(=O)NC(=O)Nc1nc(C)nc(OC)n1", "note": "[Metsulfuron-methyl]", "values": [{"measurement": "Herbicidal effect (%) 7 DAT on Trifolium pratense", "setting": "weed plants; 5 g a.i./ha", "value": 30, "unit": "%"}]}, {"smiles": "Nc1c(Cl)c(F)nc(OCC(=O)O)c1Cl", "note": "[Fluroxypyr]", "values": [{"measurement": "Herbicidal effect (%) 7 DAT on Capsella bursa pastoris", "setting": "Capsella bursa pastoris; 100 g a.i./ha", "value": 60, "unit": "%"}, {"measurement": "Selectivity evaluation (% injury) 7 DAT on Cynodon dactylon", "setting": "Cynodon dactylon; [4]", "value": 0, "unit": "%"}]}, {"smiles": "N#Cc1cc(Br)c(O)c(Br)c1", "note": "[Bromoxynil]", "values": [{"measurement": "Herbicidal effect (%) 7 DAT on Capsella bursa pastoris", "setting": "Capsella bursa pastoris; 100 g a.i./ha", "value": 30, "unit": "%"}]}, {"smiles": "CCOC(=O)C(Cl)Cc1cc(-n2nc(C)n(C(F)F)c2=O)c(F)cc1Cl", "note": "(stereo not drawn) [Carfentrazone-ethyl]", "values": [{"measurement": "Herbicidal effect (%) on Commelina benghalensis", "setting": "[2]; 15 g a.i./ha", "value": 59, "unit": "%"}, {"measurement": "Herbicidal effect (%) 12 DAT on Brachiaria decumbens", "setting": "[1]; Table 39, field, 15 g a.i./ha", "value": 0, "unit": "%"}, {"measurement": "Herbicidal effect (%) on Paspalum notatum (warm season turf grass)", "setting": "[3]; field, post-emergence, 3-leaves stage, 15 g a.i./ha, 7 DAT", "value": 0, "unit": "%"}, {"measurement": "Herbicidal effect (%) 7 DAT on Trifolium pratense", "setting": "weed plants; 8 g a.i./ha", "value": 0, "unit": "%"}]}]}
